Data as given in patent US20230077514A1, “METHODS FOR MODULATING CALORIE CONSUMPTION” (Duke University, priority 2020, published 2023).
“Also recorded” adds a separate entry of the source.

How the values were obtained:
[1] = test system: P2 purinoceptor; assay: Vagal nerve recording with P2 purinoceptor antagonist; assay type: in vivo, mice; settings: PPADS 25 mg/kg
Source text: Margolskee, J. Biol. Chem. 277(1): 1-4 (2002); Lu et al., Nature Com. 10(1): (2019). […] (FIG. 33, FIG. 36, and FIG. 37).

[2] = test system: cervical vagus nerve; assay: Whole nerve electrophysiology of the cervical vagus during duodenal sugar perfusion; assay type: in vivo, mice; settings: for vagal response (firing) to intraduodenal sugar vs baseline: wild-type mice, sucrose 300 mM, D-glucose 150 mM, fructose 150 mM, galactose 150 mM, maltodextrin 8%, α-MGP 150 mM, sucralose 15 mM, acesulfame K 15 mM, saccharin 15 mM
Description: FIG. 1. […] Model: sugars are perfused into the duodenal lumen while nerve activity is recorded from the cervical vagus of anesthetized wild-type mice.
The proximal duodenum was perfused with sugars, thus bypassing any gustatory or gastric activation. Sugars were tested based on the following properties: both caloric content and sweet taste (sucrose [300 mM], D-glucose [150 mM], […], galactose [150 mM]), calorie-only (maltodextrin [8%], alpha-methylglucopyranoside (α-MGP) [150 mM]), or taste-only (sucralose [15 mM], acesulfame-K [15 mM], saccharin [15 mM]) (FIG. 1, FIG. 2, FIG. 3, FIG. 4).

[3] = test system: murine small intestinal organoids; assay: Glutamate release assay on murine small intestinal organoids; assay type: cell-based, mouse; settings: sucrose 300 mM, α-MGP 150 mM, sucralose 15 mM; for glutamate concentration in the supernatant after stimulation: PBS control 2.632 ± 1.280; for glutamate release compared to PBS: p < 0.05
Description: Slc5a1+ Cck-GFP cells express transcripts for the vesicular glutamate transporters Slc17a6, Slc17a7, Slc17a8 and the excitatory neurotransmitter transporters Slc1a1, Slc1a2, and Slc1a3 (FIG. 4). […] A glutamate release assay was performed on murine small intestinal organoids to determine if glutamate release was stimuli specific (FIG. 24-left). α-MGP was used for a caloric stimulus with no sweet taste, because it is not metabolized once it enters the cell and thus allowed for isolation of cell entry. After nutrient stimulation, the glutamate concentration in the supernatant was 2.632 ± 1.280 ng/µL for PBS control, 13.460 ± 1.724 ng/µL for sucrose [300 mM], 18.183 ± 7.904 ng/µL for α-MGP [150 mM], and 6.053 ± 1.169 ng/µL for sucralose [15 mM].

[4] = test system: duodenal Cck cells; assay: Vagal recording with intraluminal 532 nm laser silencing of duodenal Cck (neuropod) cells; assay type: in vivo; settings: Cck_Halo mice; sucrose 300 mM, α-mgp 150 mM, sucralose 15 mM
Description: FIG. 9. Model: intraluminal 532 nm laser activates NpH3 chloride channels to silence duodenal Cck cells in CckCRE_NpH3 mice.
Using whole nerve electrophysiology of the cervical vagus nerve, it was confirmed that vagal activity increases in the presence of luminal sugars. Kaelberer et al., Science 361 (6408) (2018). The proximal duodenum was perfused with sugars, thus bypassing any gustatory or gastric activation. Sugars were tested based on the following properties: both caloric content and sweet taste (sucrose [300 mM], D-glucose [150 mM], fructose [150 mM], galactose [150 mM]), calorie-only (maltodextrin [8%], alpha-methylglucopyranoside (α-MGP) [150 mM]), or taste-only (sucralose [15 mM], acesulfame-K [15 mM], saccharin [15 mM]) (FIG. 1, FIG. 2, FIG. 3, FIG. 4). […] Intraluminal application of the 532 nm laser eliminated the vagal response to sucrose [300 mM], α-mgp [150 mM], and sucralose [15 mM] (n ≥ 5, p < 0.001) (FIG. 10 and FIG. 11; laser activation and wild-type controls). Thus, neuropod cells are required to sense both the calorie and taste properties of sugar and communicate these signals onto vagal neurons.
Cck neuropod cells in the duodenum express receptors for fatty acids (FIG. 69), analyzed by bulk sequencing Cck-positive and Cck-negative epithelial cells in the duodenum of CckGFP mice. Thus, CCK cells in the duodenum may signal the presence of fatty acids to the vagus nerve. To test this, the silencing optogenetic channel was expressed in Cck cells of mice. […] In the duodenum, there is overlap in cells expressing CCK and the vesicular glutamate transporter 1 (Vglut1), required for release of the neurotransmitter glutamate. To test whether glutamate is required as a signaling molecule for fat transduction to the vagus nerve, a cocktail of glutamate receptor inhibitors was perfused through the duodenum of wild type mice. Blockade of ionotropic and metabotropic glutamate receptors blocked vagal firing elicited by glutamate (FIG. 71). […] In an initial baseline test, mice freely explore an arena for 20 minutes, during which their position in the arena measured. […]

[5] = test system: human duodenal organoids; assay: Glutamate release assay on human duodenal organoids; assay type: cell-based; settings: sucrose 300 mM, α-MGP 150 mM, sucralose 15 mM, n = 1 human
[6] = Two-bottle choice between iso-sweet sucrose and sucralose; assay type: in vivo, mice
Description: Domingos et al., Nature Neurosci. […] Behav. […] Bennink et al., J. Nucl. […] Perez et al., Pharmacol. Biochem. Behav. […] Thus, a goal of this study was to determine if synaptic gut-brain neurotransmission drives sugar preference.
CckCRE_NpH3 mice (n = 8) and littermate controls (n = 5) were implanted with the flexible fiberoptic and given the choice between iso-sweet sucrose [300 mM] and sucralose [15 mM] in a one-hour choice assay (FIG. 38 and FIG. 53). […] Whether the caloric neurotransmitter glutamate was contributing to the sucrose preference was tested.

[7] = target: T1, sweet taste receptor T1R2/3 (Mus musculus, UniProt Q925D8+Q925I4); assay: Receptor pharmacology in whole nerve (vagal) electrophysiology: sweet taste receptor block; assay type: in vivo, mice; settings: gurmarin 7 µM
T1 construct: from tissue; host or cells: living mouse: duodenal lumen perfused, cervical vagus nerve recorded
T1 sequence (Q925I4 20-843): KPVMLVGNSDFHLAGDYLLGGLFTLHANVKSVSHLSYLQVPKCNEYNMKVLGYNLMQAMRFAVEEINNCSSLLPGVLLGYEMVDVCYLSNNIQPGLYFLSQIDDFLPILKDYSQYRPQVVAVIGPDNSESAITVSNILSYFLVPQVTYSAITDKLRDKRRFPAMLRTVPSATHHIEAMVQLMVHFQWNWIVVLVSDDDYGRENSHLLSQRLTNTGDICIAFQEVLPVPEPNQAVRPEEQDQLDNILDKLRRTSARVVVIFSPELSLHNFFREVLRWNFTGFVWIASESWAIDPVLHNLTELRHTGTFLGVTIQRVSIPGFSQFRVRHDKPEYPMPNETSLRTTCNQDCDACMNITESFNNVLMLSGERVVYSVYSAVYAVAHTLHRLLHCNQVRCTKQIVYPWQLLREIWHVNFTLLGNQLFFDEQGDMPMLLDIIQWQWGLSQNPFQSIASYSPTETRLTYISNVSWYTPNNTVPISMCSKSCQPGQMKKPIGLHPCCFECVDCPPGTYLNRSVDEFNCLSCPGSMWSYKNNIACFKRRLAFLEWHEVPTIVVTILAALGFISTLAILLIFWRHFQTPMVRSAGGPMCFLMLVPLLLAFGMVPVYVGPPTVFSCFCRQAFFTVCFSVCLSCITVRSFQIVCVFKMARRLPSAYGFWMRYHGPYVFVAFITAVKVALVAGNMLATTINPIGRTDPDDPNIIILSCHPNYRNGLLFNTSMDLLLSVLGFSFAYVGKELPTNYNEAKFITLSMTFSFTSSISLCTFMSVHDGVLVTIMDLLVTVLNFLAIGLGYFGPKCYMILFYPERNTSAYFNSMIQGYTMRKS
T1 sequence (Q925D8 21-858): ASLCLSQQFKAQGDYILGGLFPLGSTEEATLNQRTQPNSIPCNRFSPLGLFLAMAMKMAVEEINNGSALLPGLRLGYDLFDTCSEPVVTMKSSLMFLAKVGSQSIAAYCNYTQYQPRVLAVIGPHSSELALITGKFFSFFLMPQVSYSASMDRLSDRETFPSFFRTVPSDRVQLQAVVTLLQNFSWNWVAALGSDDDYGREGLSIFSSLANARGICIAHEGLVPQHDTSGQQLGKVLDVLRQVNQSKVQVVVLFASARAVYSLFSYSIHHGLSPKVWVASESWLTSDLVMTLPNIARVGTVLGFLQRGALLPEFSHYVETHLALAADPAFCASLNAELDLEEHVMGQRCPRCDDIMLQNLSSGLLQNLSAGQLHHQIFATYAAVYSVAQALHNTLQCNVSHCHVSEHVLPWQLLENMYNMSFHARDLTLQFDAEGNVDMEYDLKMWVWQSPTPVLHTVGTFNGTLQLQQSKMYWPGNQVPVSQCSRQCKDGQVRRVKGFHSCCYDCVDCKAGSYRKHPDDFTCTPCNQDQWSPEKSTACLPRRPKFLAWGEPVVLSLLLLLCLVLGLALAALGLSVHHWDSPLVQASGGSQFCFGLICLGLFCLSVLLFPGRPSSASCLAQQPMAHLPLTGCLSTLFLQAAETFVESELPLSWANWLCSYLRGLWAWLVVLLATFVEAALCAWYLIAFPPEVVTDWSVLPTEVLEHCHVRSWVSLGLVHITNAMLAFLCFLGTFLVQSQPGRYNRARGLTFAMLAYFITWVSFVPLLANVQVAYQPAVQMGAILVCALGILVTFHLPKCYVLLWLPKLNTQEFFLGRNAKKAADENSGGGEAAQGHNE
Source text: (FIG. 21 and FIG. 22), showing neuropod cells use two distinct receptor mechanisms to transduce caloric and non-caloric sugar signals to the vagus nerve.

Cc1nc(N=Nc2ccc(S(=O)(=O)O)cc2S(=O)(=O)O)c(COP(=O)(O)O)c(C=O)c1O [PPADS, pyridoxalphosphate-6-azophenyl-2’,4'-disulfonic acid]
time to peak vagal firing rate to sucralose ([1]; sucralose 15 mM): prolonged
effect on vagal response to sucralose ([1]; sucralose 15 mM, wild-type mice): significantly attenuates; also recorded: abolished
effect on vagal response to sucrose ([1]; sucrose 300 mM): not affected
effect on vagal response to α-MGP ([1]; α-MGP 150 mM): not affected

CC1=CC(=O)[N-]S(=O)(=O)O1.[K+] [acesulfame K]
vagal response (firing) to intraduodenal sugar vs baseline [2]: responds significantly

O=C(CO)[C@@H](O)[C@H](O)[C@H](O)CO [fructose]
vagal response at high concentrations ([2]; fructose 600 mM and 1 M, n.s.): blunted vagal response
vagal response (firing) to intraduodenal sugar vs baseline [2]: no significant

O=C[C@H](O)[C@@H](O)[C@@H](O)[C@H](O)CO [galactose]
vagal response (firing) to intraduodenal sugar vs baseline [2]: elicited significant vagal firing

O=C1NS(=O)(=O)c2ccccc21 [saccharin]
vagal response (firing) to intraduodenal sugar vs baseline [2]: no significant

OC[C@H]1O[C@@](CO)(O[C@H]2O[C@H](CO)[C@@H](O)[C@H](O)[C@H]2O)[C@@H](O)[C@@H]1O [sucrose]
glutamate concentration in the supernatant after stimulation [3]: 13.460 ± 1.724 ng/µL
glutamate release compared to PBS [3]: significantly higher; also recorded: elicit significant release of glutamate
vagal response with Cck cells silenced by 532 nm laser [4]: eliminated
glutamate release compared to PBS control [5]: elicited glutamate release; also recorded: release significant amounts of glutamate
preference for sucrose ([6]; CckCRE_NpH3 mice, control 473 nm laser, one-hour choice): 90.8% ± 3.74%
preference for sucrose ([6]; CckCRE_NpH3 mice, silencing 532 nm laser, one-hour choice vs sucralose 15 mM): 58.9% ± 3.92%
preference for sucrose ([6]; negative genotype littermate controls, 473 nm): 84.2% ± 6.30%
preference for sucrose ([6]; negative genotype littermate controls, 532 nm): 87.7% ± 2.21
vagal response (firing) to intraduodenal sugar vs baseline [2]: responds significantly

COC1OC(CO)C(O)C(O)C1O (stereo not drawn) [α-MGP, alpha-methylglucopyranoside]
glutamate concentration in the supernatant after stimulation [3]: 18.183 ± 7.904 ng/µL
glutamate release compared to PBS [3]: significantly higher
glutamate release compared to PBS ([3]; listed as aMGP): elicit significant release of glutamate
vagal response with Cck cells silenced by 532 nm laser [4]: eliminated
glutamate release compared to PBS control [5]: elicited glutamate release
glutamate release compared to PBS control ([5]; listed as aMGP): release significant amounts of glutamate
vagal response (firing) to intraduodenal sugar vs baseline [2]: responds significantly

gurmarin
effect on vagal firing elicited by sucralose ([7]; sucralose 15 mM): abolished; also recorded: inhibited
effect on vagal response to sucrose ([7]; sucrose 300 mM): did not affect
effect on vagal response to α-MGP ([7]; α-MGP 150 mM): did not affect
